In patent US10159656B2, “Methods for use of epinephrine fine particles for treatment of conditions responsive to epinephrine” (NOVA SOUTHEASTERN UNIVERSITY, priority 2013, dated 2018):

Key:
[1] = one cycle at 30,000 Psi
Method: The processed EpiBit were tested for stability and removal of isopropyl alcohol using FT-IR spectrometer, spectrum 100 (PerkinElmer, Waltham, Mass.) scanned from 4000-650 cm^−1.

[2] = one cycle at 30,000 Psi; remark: listed apart in the source
Method: Also, the processed EpiBit were tested for purity, stability, and crystallinity changes using Differential Scanning calorimetry (DSC) 4000 (PerkinElmer, Waltham, Mass.) that was calibrated using an indium standard and heated from 30 to 300° C. at rate of 10° C./min and with a nitrogen purge of 20 mL/min.

[3] = after processing, one cycle at 30,000 Psi
[4] = Method: The average particles size (by volume) of EpiBit before processing was measured using laser diffraction technique using Mastersizer (Malvern Instruments Inc, Westborough, Mass.).
[5] = EpiBit before processing, by volume, n=6, text
[6] = EpiBit before processing, by volume, listed as EpiBit crystals before processing

SMILES	degradation after processing (FT-IR spectra before and after) [1]	degradation or crystallinity change after processing (DSC) [2]	particles size distribution by intensity ([3]; n=3) [μm]	particles size distribution by volume ([3]; n=3) [μm]	Z-potential ([3]; listed as EpiBit crystals after processing) [mV]	10th percentile (Dv0.1) particle size [4, 5] [nm]	median (Dv0.5) particle size [4, 5] [nm]	D (4, 3) mean volume particle size [4, 6] [μm]	D(0.9) particle size [4, 6] [μm]	reduction of particles size of EpiBit crystals ([4]; after versus before processing)
CNC[C@H](O)c1ccc(O)c(O)c1.O=C(O)C(O)C(O)C(=O)O [EpiBit After Processing, epinephrine bitartrate microcrystals]	no evidence of EpiBit degradation after processing	no evidence of EpiBit degradation or crystallinity change after processing	2.4±0.4	2.5±0.4	−4.5±1.4					
CNC[C@H](O)c1ccc(O)c(O)c1.O=C(O)C(O)C(O)C(=O)O [EpiBit Before Processing, (−)-Epinephrine (+) bitartrate]						39.8±3.0	113.6±9.1	131.8±10.5	254.8±20.1	up to 55 folds
